Measured values as given in ChEMBL document CHEMBL1201862, “PubChem BioAssay data set” (2004).
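Values below derive from 48-hour exposures of cells grown in 96-well plates, with endpoints linearly interpolated between the two concentrations bracketing the appropriate inhibition level. Abbreviation: GI50, concentration required for 50% inhibition of growth.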 The source made the active and inactive calls. No stated cut-off is given here; in the data, active = GI50 up to about 1.1 µM and inactive = higher.

Columns and labels:
Experiment in all cases: NCI anticancer screen, dose series, 48 h
[1] = tested on: T47D
[2] = tested on: SN12C
[3] = tested on: SNB-19
[4] = tested on: NCI-H226
[5] = tested on: LOX IMVI
[6] = tested on: IGROV-1
[7] = tested on: SNB-75
[8] = tested on: HT-29
[9] = tested on: SR
[10] = tested on: SF-295
[11] = tested on: MDA-MB-435
[12] = tested on: UACC-257
[13] = tested on: UACC-62
[14] = tested on: U-251
[15] = tested on: HOP-62
[16] = tested on: UO-31
[17] = tested on: SK-MEL-2
[18] = tested on: SK-OV-3
[19] = tested on: OVCAR-8
[20] = tested on: M14

| SMILES | GI50 [1] | GI50 [2] | GI50 [3] | GI50 [4] | GI50 [5] | GI50 [6] | GI50 [7] | GI50 [8] | GI50 [9] | GI50 [10] | GI50 [11] | GI50 [12] | GI50 [13] | GI50 [14] | GI50 [15] | GI50 [16] | GI50 [17] | GI50 [18] | GI50 [19] | GI50 [20] |
| --- | --- | --- | --- | --- | --- | --- | --- | --- | --- | --- | --- | --- | --- | --- | --- | --- | --- | --- | --- | --- |
| CCN(CC)CC1CCCCN1CC(=O)N1c2ccccc2C(=O)Nc2cccnc21 (stereo not given) [OTENZEPAD] | > 100 µM (inactive) | 50.9 µM (inactive) | > 100 µM (inactive) | 41 µM (inactive) | 18.3 µM (inactive) | > 100 µM (inactive) | 99.1 µM (inactive) | 21.8 µM (inactive) | 28.1 µM (inactive) | > 100 µM (inactive) | 63 µM (inactive) | 38.1 µM (inactive) | 91.4 µM (inactive) | 60.5 µM (inactive) | 34.7 µM (inactive) | 1.97 µM (inactive) | > 100 µM (inactive) | > 100 µM (inactive) | 45.4 µM (inactive) | 68.9 µM (inactive) |
| COC(=O)[C@H](Cc1c[nH]c2ccccc12)NC(=O)c1ccc(CNC(=O)/C(C)=C/c2ccccc2)cc1 | 3.7 µM (inactive) | > 100 µM (inactive) | > 100 µM (inactive) | > 100 µM (inactive) | 44.3 µM (inactive) | 32.1 µM (inactive) | 0.497 µM (active) | > 100 µM (inactive) | 28.6 µM (inactive) | 60.1 µM (inactive) | 36.4 µM (inactive) | 18 µM (inactive) | 20.9 µM (inactive) | 80 µM (inactive) | 92.5 µM (inactive) | 63.7 µM (inactive) | 12.4 µM (inactive) | > 100 µM (inactive) | 66.7 µM (inactive) | 15.9 µM (inactive) |
| Nc1ccn(C2CCC(CO)O2)c(=S)n1 (stereo not given) | > 100 µM (inactive) | > 100 µM (inactive) | > 100 µM (inactive) | > 100 µM (inactive) | > 100 µM (inactive) | > 100 µM (inactive) | 89.5 µM (inactive) | > 100 µM (inactive) | > 100 µM (inactive) | > 100 µM (inactive) | > 100 µM (inactive) | > 100 µM (inactive) | > 100 µM (inactive) | > 100 µM (inactive) | > 100 µM (inactive) | > 100 µM (inactive) | > 100 µM (inactive) | > 100 µM (inactive) | > 100 µM (inactive) | > 100 µM (inactive) |
| COc1cccc2c3cccc(OC)c3c3[nH]cnc3c12 | 6.24 µM (inactive) | 5.45 µM (inactive) | 5.01 µM (inactive) | 15.9 µM (inactive) | 1.98 µM (inactive) | 1.76 µM (inactive) | 4.3 µM (inactive) | 1.64 µM (inactive) | 2.16 µM (inactive) | 4.78 µM (inactive) | 2.06 µM (inactive) | 17.7 µM (inactive) | 16.7 µM (inactive) | 1.67 µM (inactive) | 16.4 µM (inactive) | 1.66 µM (inactive) | 20.1 µM (inactive) | 18.7 µM (inactive) | 1.94 µM (inactive) | 1.71 µM (inactive) |
| C[C@H]1C(=O)C2=C[C@H]1CCC(=O)[C@]1(C)CCCC(C)(C)[C@H]1C[C@H]2O | 17.6 µM (inactive) | 26.9 µM (inactive) | > 100 µM (inactive) | 19.7 µM (inactive) | 17.3 µM (inactive) | 37.9 µM (inactive) | 16.7 µM (inactive) | 13.9 µM (inactive) | 17.5 µM (inactive) | 33.3 µM (inactive) | 31.2 µM (inactive) | 32.3 µM (inactive) | 36.5 µM (inactive) | 15.1 µM (inactive) | 97.5 µM (inactive) | 27.4 µM (inactive) | > 100 µM (inactive) | 39.6 µM (inactive) | 17.5 µM (inactive) | 13.2 µM (inactive) |
| O=C(Oc1ccc(OC(Oc2ccccc2)c2ccccc2)cc1)c1ccccc1 (stereo not given) | 50 µM (inactive) | 28.8 µM (inactive) | > 31.6 µM (inactive) | > 31.6 µM (inactive) | 22.1 µM (inactive) | 15.2 µM (inactive) | 27.5 µM (inactive) | 22.9 µM (inactive) | 19.1 µM (inactive) | 14.7 µM (inactive) | 24.6 µM (inactive) | 17.9 µM (inactive) | > 31.6 µM (inactive) | > 75.7 µM (inactive) | 13.9 µM (inactive) | 16 µM (inactive) | 17.3 µM (inactive) | 27.2 µM (inactive) | > 31.6 µM (inactive) | 8.38 µM (inactive) |
| COc1ccc(-n2nnc3c(C#N)c(C)c(-c4ccccc4)n3c2=O)cc1 | 1.76 µM (inactive) | 4.34 µM (inactive) | 3.35 µM (inactive) | 2.3 µM (inactive) | 3.31 µM (inactive) | 2.22 µM (inactive) | 3.2 µM (inactive) | 4.42 µM (inactive) | 1.96 µM (inactive) | 2.24 µM (inactive) | 0.543 µM (active) | > 47.4 µM (inactive) | 4.41 µM (inactive) | 11.3 µM (inactive) | 4.04 µM (inactive) | 4.33 µM (inactive) | 3.56 µM (inactive) | 2.29 µM (inactive) | 4.92 µM (inactive) | 1.4 µM (inactive) |
| COc1ccc(C(CC(C)=O)c2c(O)c3ccccc3oc2=O)cc1OC (stereo not given) | > 100 µM (inactive) | > 100 µM (inactive) | > 100 µM (inactive) | > 100 µM (inactive) | > 100 µM (inactive) | > 100 µM (inactive) | > 100 µM (inactive) | > 100 µM (inactive) | > 100 µM (inactive) | > 100 µM (inactive) | > 100 µM (inactive) | > 100 µM (inactive) | > 100 µM (inactive) | > 100 µM (inactive) | > 100 µM (inactive) | > 100 µM (inactive) | > 100 µM (inactive) | > 100 µM (inactive) | > 100 µM (inactive) | > 100 µM (inactive) |
